By logP is commonly meant the decadic logarithm of the partition coefficient of the neutral form, usually between octanol and water. A high value points to higher lipophilicity. The compound `O=C(NCCNCC(O)COc1ccc(-c2ncc[nH]2)cc1)Nc1ccccc1` (centres undefined) returned a logP of 1.19. Consider `COc1ccc(CCNC[C@H](O)COc2ccc(-c3ncc(-c4cccs4)[nH]3)cc2C)cc1OC`, for which the logP was found to be 3.32. Regarding `CC(C)NCC(O)COc1ccc(-c2ncc(-c3cccs3)[nH]2)cc1` (centres undefined), the logP worked out at 2.18. On to `CCOCCNCC(O)COc1ccc(-c2ncc(-c3cccs3)[nH]2)cc1` (centres undefined), for which the logP turned out to be 2.25. With `COc1ccc(CCNC[C@H](O)COc2ccc(Cc3ncc(-c4cccs4)[nH]3)cc2)cc1OC`, the logP was 2.28. As to `COCCc1cnc(-c2ccc(OC[C@@H](O)CNCCc3ccc(OC)c(OC)c3)cc2)[nH]1`, the logP came to 2.06. `COc1ccc(CCNC[C@H](O)COc2ccc(-c3nc(C(C)=O)c(C)[nH]3)cc2)cc1OC`: the logP turned out to be 2.14. For `CCOC(=O)c1cnc(-c2ccc(OC[C@@H](O)CNCCc3ccc(OC)c(OC)c3)cc2)[nH]1` the value was 2.3; for `COc1ccc(CCNCC(O)COc2ccc(-c3nccn3C)cc2)cc1OC` (centres undefined), 2.08; for `CC(C)(C)NC[C@H](O)COc1ccc(Cc2ncc(-c3cccs3)[nH]2)cc1`, 2.57. For `COc1ccc(CCNC[C@H](O)COc2ccc(Cc3ncc(C)[nH]3)cc2)cc1OC` the value was 1.28; for `COc1ccc(CCNC[C@H](O)COc2ccc(-c3ncc(Br)[nH]3)cc2Cl)cc1OC`, 2.73. `COc1ccc(CCNC[C@H](O)COc2ccc(-c3ncc(CO)[nH]3)cc2)cc1OC` yielded a logP of 0.63. Consider `CC(C)NC[C@H](O)COc1ccc(-c2ncc(C(C)C)[nH]2)cc1`, for which the logP came to 2.23.

The compound `COc1ccc(CCNC[C@H](O)COc2ccc(COCc3ncc[nH]3)cc2)cc1OC` showed a logP of 1.29. In turn, `CCOCc1cnc(-c2ccc(OC[C@@H](O)CNCCc3ccc(OC)c(OC)c3)cc2)[nH]1` gave a logP of 0.84.

The compound `CC(C)NCC(O)COc1ccc(-c2ncc[nH]2)cc1` (centres undefined) came in with a logP of 0.65. The result for `COc1ccc(CCNCC(O)COc2ccc(OCc3ncc[nH]3)cc2)cc1OC` (centres undefined) reads 1.21; that for `COc1ccc(CCNC[C@H](O)COc2ccc(-c3ncc(C(C)C)[nH]3)cc2)cc1OC`, 2.49; that for `COc1ccc(CCNC[C@H](O)COc2ccc(-c3nc(Cl)c(C)[nH]3)cc2)cc1OC`, 2.35. `CCCCNC(=O)NCCNCC(O)COc1ccc(-c2ncc(C)[nH]2)cc1` (centres undefined) yielded a logP of 1.24. In turn, `COCc1nc(-c2ccc(OC[C@@H](O)CNCCc3ccc(OC)c(OC)c3)cc2)[nH]c1C` yielded a logP of 1.07.

`Cc1cnc(Cc2ccc(OC[C@@H](O)CNC(C)(C)C)cc2)[nH]1` returned a logP of 1.11.

The compound `OC(CNCCc1ccncc1)COc1ccc(-c2ncc(-c3cccs3)[nH]2)cc1` (centres undefined) came in with a logP of 2.25. For the compound `CC(C)NC[C@H](O)COc1ccc(Cc2ncc(Br)[nH]2)cc1`, the logP stood at 1.35. Regarding `COc1ccc(CCNC[C@H](O)COc2ccc(Cc3ncc(C(C)=O)[nH]3)cc2)cc1OC`, the logP was 0.87. On to `COc1ccc(CCNC[C@H](O)COc2ccc(-c3ncc(Cl)[nH]3)cc2)cc1OC`, for which the logP was 2.4.

In turn, `COc1ccc(CCNCC(O)COc2ccc(-c3ncco3)cc2)cc1OC` (centres undefined) showed a lipophilicity (logP) of 2.6. `COc1ccc(CCNCC(O)COc2ccc(-c3ncc(C)[nH]3)cc2Br)cc1OC` (centres undefined) returned a logP of 2.3. For `COc1ccc(CCNCC(O)COc2ccc(-c3ncc(C)[nH]3)cc2OC)cc1OC` (centres undefined), the logP came out at 1.89. The compound `COCc1cnc(-c2ccc(OC[C@@H](O)CNCCc3ccc(OC)c(OC)c3)cc2)[nH]1` registered a logP of 1.71. Compound `COc1ccc(CCNC[C@H](O)COc2ccc(-c3ncc(C(N)=O)[nH]3)cc2)cc1OC` came in with a logP of 0.99. Regarding `COc1ccc(CCNCC(O)COc2ccc(-c3ncc(C)n3C)cc2)cc1OC` (centres undefined), the logP came out at 1.72. `COc1ccc(CCNC[C@H](O)COc2ccc(CCc3ncc(-c4cccs4)[nH]3)cc2)cc1OC` came in with a logP of 2.08. The compound `CCCNCC(O)COc1ccc(-c2ncc(-c3cccs3)[nH]2)cc1` (centres undefined) had a logP of 2.84. In turn, `COc1ccc(CCNC[C@H](O)COc2ccc(-c3ncc(Br)[nH]3)cc2)cc1OC` had a logP of 1.9. The result for `COc1ccc(CCNC[C@H](O)COc2ccc(-c3nc(Br)c(C)[nH]3)cc2)cc1OC` reads 2.69; that for `COc1ccc(CCNC[C@H](O)COc2ccc(-c3ncc(C(C)(C)C)[nH]3)cc2)cc1OC`, 2.86; that for `COc1ccc(CCNC[C@H](O)COc2ccc(-c3ncc(C(C)=O)[nH]3)cc2)cc1OC`, 1.23.

Source of the values: the SangsterLogP compilation.
